From patent US9598440B2, “Inhibitors of IRAK4 activity” (MERCK SHARP & DOHME CORP., priority 2012, dated 2017)
pIC50: −log10 of the molar value.

target: IRAK4 (Homo sapiens (Human), UniProt Q9NWZ3); assay: Determination of IRAK4 kinase activity (IMAP fluorescence polarization, phosphorylation of fluorescent peptide substrate); format: biochemical; conditions: 0.5 nM GST tagged IRAK4, 100 nM peptide substrate RP7030, 100 μM ATP, 30 minutes at 25° C.
Method in brief: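 GST-tagged IRAK4 (0.5 nM) phosphorylated 100 nM fluorescent peptide substrate with 100 µM ATP in Tris-HCl pH 7.2, 1 mM MgCl2, 1 mM DTT, 0.01% Tween 20 for 30 min at 25 °C. Phosphorylation read by IMAP nanoparticle binding as fluorescence polarization increase.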

Sequence of IRAK4 (Q9NWZ3 whole entry): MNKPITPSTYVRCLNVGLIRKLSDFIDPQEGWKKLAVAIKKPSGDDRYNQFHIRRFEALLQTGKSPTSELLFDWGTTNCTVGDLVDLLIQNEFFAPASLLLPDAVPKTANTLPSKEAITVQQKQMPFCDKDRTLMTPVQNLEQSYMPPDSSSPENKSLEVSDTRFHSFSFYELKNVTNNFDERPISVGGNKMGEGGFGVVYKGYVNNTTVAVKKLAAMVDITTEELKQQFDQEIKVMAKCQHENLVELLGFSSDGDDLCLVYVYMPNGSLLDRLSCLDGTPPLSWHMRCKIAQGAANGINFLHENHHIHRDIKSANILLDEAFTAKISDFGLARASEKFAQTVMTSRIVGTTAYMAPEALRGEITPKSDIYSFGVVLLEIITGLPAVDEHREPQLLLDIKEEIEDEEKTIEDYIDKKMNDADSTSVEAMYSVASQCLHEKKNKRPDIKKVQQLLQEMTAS

Row | SMILES | pIC50
1 | Cc1nc(Nc2cccnc2)nc(N[C@@H]2C[C@H](CO)[C@@H](O)[C@H]2O)c1-c1nc2ccccc2s1 [Example 99, (1R,2S,3R,5R)-3-((5-(benzo[d]thiazol-2-yl)-6-methyl-2-(pyridin-3-ylamino)pyrimidin-4-yl)amino)-5-(hydroxymethyl)cyclopentane-1,2-diol] | 6.53
2 | Cc1cc(Nc2nc(C)c(-c3nc4ccccc4s3)c(N[C@@H]3C[C@H](CO)[C@@H](O)[C@H]3O)n2)ccn1 [Example 100, (1R,2S,3R,5R)-3-((5-(benzo[d]thiazol-2-yl)-6-methyl-2-((2-methylpyridin-4-yl)amino)pyrimidin-4-yl)amino)-5-(hydroxymethyl)cyclopentane-1,2-diol] | 6.86
3 | Cc1nc(N)nc(N[C@@H]2C[C@H](CO)[C@@H](O)[C@H]2O)c1-c1nc2ccccc2o1 [Example 101, (1R,2S,3R,5R)-3-((2-amino-5-(benzo[d]oxazol-2-yl)-6-methylpyrimidin-4-yl)amino)-5-(hydroxymethyl)cyclopentane-1,2-diol] | 6.00
4 | Cc1nc(Nc2cccc(C(N)=O)c2)nc(N[C@@H]2C[C@H](CO)[C@@H](O)[C@H]2O)c1-c1nc2ccccc2s1 [Example 102, 3-((5-(benzo[d]thiazol-2-yl)-4-(((1R,2S,3R,4R)-2,3-dihydroxy-4-(hydroxymethyl)cyclopentyl)amino)-6-methylpyrimidin-2-yl)amino)benzamide] | 6.85
5 | Cc1nc(Nc2ccc(O)cc2)nc(N[C@@H]2C[C@H](CO)[C@@H](O)[C@H]2O)c1-c1nc2ccccc2s1 [Example 103, (1R,2S,3R,5R)-3-((5-(benzo[d]thiazol-2-yl)-2-((4-hydroxyphenyl)amino)-6-methylpyrimidin-4-yl)amino)-5-(hydroxymethyl)cyclopentane-1,2-diol] | 6.61
6 | Cc1nc(Nc2cccc(O)c2)nc(N[C@@H]2C[C@H](CO)[C@@H](O)[C@H]2O)c1-c1nc2ccccc2s1 [Example 104, (1R,2S,3R,5R)-3-((5-(benzo[d]thiazol-2-yl)-2-((3-hydroxyphenyl)amino)-6-methylpyrimidin-4-yl)amino)-5-(hydroxymethyl)cyclopentane-1,2-diol] | 6.66
7 | COc1cc(Nc2nc(C)c(-c3nc4ccccc4s3)c(N[C@@H]3C[C@H](CO)[C@@H](O)[C@H]3O)n2)ccn1 [Example 105, (1R,2S,3R,5R)-3-((5-(benzo[d]thiazol-2-yl)-2-((2-methoxypyridin-4-yl)amino)-6-methylpyrimidin-4-yl)amino)-5-(hydroxymethyl)cyclopentane-1,2-diol] | 7.03
8 | Cc1nc(Nc2cccc(Cl)c2)nc(N[C@@H]2C[C@H](CO)[C@@H](O)[C@H]2O)c1-c1nc2ccccc2s1 [Example 106, (1R,2S,3R,5R)-3-((5-(benzo[d]thiazol-2-yl)-2-((3-chlorophenyl)amino)-6-methylpyrimidin-4-yl)amino)-5-(hydroxymethyl)cyclopentane-1,2-diol] | 6.28
9 | Cc1cc(Nc2ncc(-c3nc(C)cs3)c(N[C@@H]3C[C@H](C(C)(C)O)[C@@H](O)[C@H]3O)n2)cc(C)n1 [Example 133, (1R,2S,3R,5S)-3-((2-((2,6-dimethylpyridin-4-yl)amino)-5-(4-methylthiazol-2-yl)pyrimidin-4-yl)amino)-5-(2-hydroxypropan-2-yl)cyclopentane-1,2-diol] | 9.70
10 | Cc1csc(-c2cnc(NC3CCC3)nc2N[C@@H]2C[C@H](C(C)(C)O)[C@@H](O)[C@H]2O)n1 [Example 134, (1R,2S,3R,5S)-3-((2-(cyclobutylamino)-5-(4-methylthiazol-2-yl)pyrimidin-4-yl)amino)-5-(2-hydroxypropan-2-yl)cyclopentane-1,2-diol] | 6.57
11 | COc1cc(Nc2ncc(-c3nc4ccccc4s3)c(N[C@@H]3C[C@H](CO)[C@@H](O)[C@H]3OC)n2)ccn1 [Example 139, (1R,2S,3R,5R)-3-((5-(benzo[d]thiazol-2-yl)-2-((2-methoxypyridin-4-yl)amino)pyrimidin-4-yl)amino)-5-(hydroxymethyl)-2-methoxycyclopentanol] | 7.54
12 | CO[C@@H]1[C@H](O)[C@@H](CO)C[C@H]1Nc1nc(Nc2cc(C)nc(C)c2)ncc1-c1nc2ccccc2s1 [Example 140, (1R,2S,3R,5R)-3-((5-(benzo[d]thiazol-2-yl)-2-((2,6-dimethylpyridin-4-yl)amino)pyrimidin-4-yl)amino)-5-(hydroxymethyl)-2-methoxycyclopentanol] | 8.05
13 | COc1cc(Nc2ncc(-c3ccc4ccccc4n3)c(N[C@@H]3C[C@H](CO)[C@@H](O)[C@H]3OC)n2)ccn1 [Example 141, (1R,2S,3R,5R)-5-(hydroxymethyl)-2-methoxy-3-((2-((2-methoxypyridin-4-yl)amino)-5-(quinolin-2-yl)pyrimidin-4-yl)amino)cyclopentanol] | 7.48

The next lines start with the values.

Row | pIC50 | SMILES
14 | 8.10 | Cc1cc(Nc2nc(C)c(-c3nc4ccccc4s3)c(N[C@@H]3C[C@H](C(C)(C)O)[C@@H](O)[C@H]3O)n2)cc(C)n1 [Example 107, 5-(benzo[d]thiazol-2-yl)-6-(((1R,2S,3R,4S)-2,3-dihydroxy-4-(2-hydroxypropan-2-yl)cyclopentyl)amino)-2-((2,6-dimethylpyridin-4-yl)amino)-4-methylpyrimidine]
15 | 6.42 | Cc1cc(Nc2ncc(-c3nc4ccccc4s3)c(N[C@H]3C[C@@H](CO)[C@H](O)[C@@H]3O)n2)cc(C)n1 [Example 108, 5-(benzo[d]thiazol-2-yl)-6-(((1S,2R,3 S,4S)-2,3-dihydroxy-4-(hydroxymethyl)cyclopentyl)amino)-2-((2,6-dimethylpyridin-4-yl)amino)pyrimidine]
16 | 9.70 | Cc1cc(Nc2ncc(-c3ccc4ccccc4n3)c(N[C@@H]3C[C@H](C(C)(C)O)[C@@H](O)[C@H]3O)n2)ccn1 [Example 124, 6-(((1R,2S,3R,4R)-2,3-dihydroxy-4-(2-hydroxypropan-2-yl)cyclopeltyl)amino)-2-((2-methylpyridin-4-yl)amino)-5-(quinolin-2-yl)pyrimidine]
17 | 7.80 | Cc1cc(Nc2ncc(-c3nc4ccccc4s3)c(N[C@@H]3C[C@H](C(C)(C)O)[C@@H](O)[C@H]3O)n2)ccn1 [Example 127, (1R,2S,3R,5S)-3-((5-(benzo[d]thiazol-2-yl)-2-((2-methylpyridine-4-yl)amino)pyrimidin-4-yl)amino)-5-(2-hydroxypropan-2-yl)cyclopentane-1,2-diol]
18 | 7.30 | CC(C)(O)[C@H]1C[C@@H](Nc2nc(NC3CCC3)ncc2-c2nc3ccccc3s2)[C@H](O)[C@@H]1O [Example 128, (1R,2S,3R,5S)-3-((5-(benzo[d]thiazol-2-yl)-2-(cyclobutylamino)pyrimidin-4-yl)amino)-5-(2-hydroxypropan-2-yl)cyclopentane-1,2-diol]
19 | 8.85 | CC(C)(O)[C@H]1C[C@@H](Nc2nc(Nc3cccc(C(N)=O)c3)ncc2-c2nc3ccccc3s2)[C@H](O)[C@@H]1O [Example 129, 3-((5-(benzo[d]thiazol-2-yl)-4-(((1R,2S,3R,4S)-2,3-dihydroxy-4-(2-hydroxypropan-2-yl)cyclopentyl)amino)pyrimidin-2-yl)amino)benzamide]
20 | 7.64 | CC(C)(O)[C@H]1C[C@@H](Nc2nc(N)ncc2-c2nc3ccccc3s2)[C@H](O)[C@@H]1O [Example 130, (1R,2S,3R,5S)-3-((2-amino-5-(benzo[d]thiazol-2-yl)pyrimidin-4-yl)amino)-5-(2-hydroxypropan-2-yl)cyclopentane-1,2-diol]
21 | 6.42 | CC(C)(O)[C@H]1C[C@@H](Nc2nc(NC3CCN(S(C)(=O)=O)CC3)ncc2-c2nc3ccccc3s2)[C@H](O)[C@@H]1O [Example 131, (1R,2S,3R,5S)-3-((5-(benzo[d]thiazol-2-yl)-2-((1-(methylsulfonyl)piperidin-4-yl)amino)pyrimidin-4-yl)amino)-5-(2-hydroxypropan-2-yl)cyclopentane-1,2-diol]
22 | 7.27 | Cc1csc(-c2cnc(N)nc2N[C@@H]2C[C@H](C(C)(C)O)[C@@H](O)[C@H]2O)n1 [Example 132, (1R,2S,3R,5S)-3-((2-amino-5-(4-methylthiazol-2-yl)pyrimidin-4-yl)amino)-5-(2-hydroxypropan-2-yl)cyclopentane-1,2-diol]
23 | 9.00 | COc1cc(Nc2ncc(-c3nc(C)cs3)c(N[C@@H]3C[C@H](C(C)(C)O)[C@@H](O)[C@H]3O)n2)ccn1 [Example 135, (1S,2R,3 S,5R)-3-(2-hydroxypropan-2-yl)-5-((2-((2-methoxypyridin-4-yl)amino)-5-(4-methylthiazol-2-yl)pyrimidin-4-yl)amino)cyclopentane-1,2-diol]
24 | 7.17 | CO[C@@H]1[C@H](O)[C@@H](CO)C[C@H]1Nc1nc(N)ncc1-c1nc2ccccc2s1 [Example 142, (1R,2S,3R,5R)-3-((2-amino-5-(benzo[d]thiazol-2-yl)pyrimidin-4-yl)amino)-5-(hydroxymethyl)-2-methoxycyclopentanol]
25 | 7.02 | COC[C@H]1C[C@@H](Nc2nc(Nc3ccnc(OC)c3)ncc2-c2nc3ccccc3s2)[C@H](O)[C@@H]1O [Example 143, (1R,2S,3R,5R)-3-((5-(benzo[d]thiazol-2-yl)-2-((2-methoxypyridin-4-yl)amino)pyrimidin-4-yl)amino)-5-(methoxymethyl)cyclopentane-1,2-diol]
26 | 8.52 | Cc1cc(Nc2ncc(-c3nc4ccccc4s3)c(N[C@@H]3C[C@H](CF)[C@@H](O)[C@H]3O)n2)cc(C)n1 [Example 144, (1R,2S,3R,5S)-3-((5-benzo[d]thiazol-2-yl)-2-((2,6-dimethylpyridin-4-yl)amino-pyrimidin-4-yl)amino)-5-(fluoromethyl)cyclopentane-1,2-diol]
27 | 5.88 | Nc1ncc(-c2nc3ccccc3s2)c(N[C@@H]2C[C@H](CO)[C@@H](O)[C@@H]2F)n1 [Example 145, (1R,2R,3R,5R)-3-((2-amino-5-(benzo[d]thiazol-2-yl)pyrimidin-4-yl)amino)-2-fluoro-5-(hydroxymethyl)cyclopentanol]
